Test results reported in PubChem BioAssay (NCI).
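Cultured in 96-well plates, cells were exposed to test compound for 48 hours across five concentrations. TGI: concentration producing complete growth inhibition.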

Key:
Assay in all cases: inhibition of tumour cell growth, NCI panel, 48 h
SK-MEL-28 melanoma = tested on: SK-MEL-28 melanoma
OVCAR-5 ovarian = tested on: OVCAR-5 ovarian
SN12C renal = tested on: SN12C renal
OVCAR-3 ovarian = tested on: OVCAR-3 ovarian
HT29 colon = tested on: HT29 colon
MCF7 breast = tested on: MCF7 breast
RPMI-8226 leukemia = tested on: RPMI-8226 leukemia
CCRF-CEM leukemia = tested on: CCRF-CEM leukemia
NCI-H460 lung = tested on: NCI-H460 lung
NCI/ADR-RES ovarian = tested on: NCI/ADR-RES ovarian
SW-620 colon = tested on: SW-620 colon
SK-MEL-5 melanoma = tested on: SK-MEL-5 melanoma
COLO 205 colon = tested on: COLO 205 colon
MOLT-4 leukemia = tested on: MOLT-4 leukemia
A498 renal = tested on: A498 renal
HS 578T breast = tested on: HS 578T breast
SR leukemia = tested on: SR leukemia
MDA-MB-231 breast = tested on: MDA-MB-231 breast
HOP-92 NSCLC = tested on: HOP-92 NSCLC
TK-10 renal = tested on: TK-10 renal

Row | Structure (SMILES) | TGI (SK-MEL-28 melanoma) [µM] | TGI (OVCAR-5 ovarian) [µM] | TGI (SN12C renal) [µM] | TGI (OVCAR-3 ovarian) [µM] | TGI (HT29 colon) [µM] | TGI (MCF7 breast) [µM] | TGI (RPMI-8226 leukemia) [µM] | TGI (CCRF-CEM leukemia) [µM] | TGI (NCI-H460 lung) [µM] | TGI (NCI/ADR-RES ovarian) [µM] | TGI (SW-620 colon) [µM] | TGI (SK-MEL-5 melanoma) [µM] | TGI (COLO 205 colon) [µM] | TGI (MOLT-4 leukemia) [µM] | TGI (A498 renal) [µM] | TGI (HS 578T breast) [µM] | TGI (SR leukemia) [µM] | TGI (MDA-MB-231 breast) [µM] | TGI (HOP-92 NSCLC) [µM] | TGI (TK-10 renal) [µM]
1 | COC(=O)[C@H](Cc1ccccc1)NC(=O)N(CCNC(=O)OC(C)(C)C)c1ccccc1 | > 100 | > 100 | > 100 | > 100 | > 100 | > 100 | > 100 | > 100 | > 100 | > 100 | > 100 | > 100 | > 100 | > 100 | > 100 | > 100 | > 100 | > 100 |  | 
2 | CC(C)CC1N=C(OCc2ccccc2)OC1=O (stereo unspecified) | > 100 | > 100 | > 100 | > 100 | > 100 | > 100 | > 100 | > 100 | > 100 | > 100 | > 100 | > 100 |  | > 100 | > 100 | > 100 |  | > 100 | > 100 | > 100
3 | C[C@@H](c1ccccc1)N1CO[C@@]2(C#Cc3ccc4c(c3)OCO4)CCC[C@@H]12 | 39 | 32 | 33.3 |  | 34.6 | > 100 | 38 | > 100 | 26 | 30.8 |  | 25.8 | 31.4 | 48.2 |  | 33.4 | 32.5 | 28.2 | 19.7 | 28.8
4 | CCOc1cc2c(cc1O)C(=O)C[C@@H]1[C@@H]2CC[C@]2(C)[C@@H](O)CC[C@@H]12 | > 73.5 | > 100 | > 100 | 1.7 | 29.9 | > 100 | > 9.48 | > 100 | 12.4 | 8.27 | > 100 | 7.11 | 47.4 | > 31.7 | > 29.1 | > 12.4 |  | 61.8 | > 100 | > 100
5 | CC(C)c1c(O[Si](C(C)C)(C(C)C)C(C)C)cc2c(c1O)CC[C@H]1C(C)(C)CCC[C@]21C | > 100 | > 100 | > 100 | > 100 | > 100 | > 100 | > 100 | > 100 | > 100 | > 100 | > 100 | > 100 | > 100 | > 100 | > 100 | > 100 |  | > 100 | > 100 | > 100
6 | NC1NCCC(=O)N1CCc1c[nH]c2ccccc12 (stereo unspecified) | 34.9 | 69.3 | 67.6 | 48.4 | 82.9 | 29.2 | 60.3 | 51.9 | 31.2 | 69.4 | 42 | 30.8 | 32.5 |  | 27.9 | 55.2 | 57.7 | 34.4 | 69.5 | 51.7
7 | O=C(O)c1ccc(Nc2cnc3cc(C(F)(F)F)ccc3n2)cc1 | > 100 | > 100 | > 100 | > 100 | > 100 | > 100 | > 100 | > 100 | > 100 | > 100 | > 100 | > 100 | > 100 | > 100 |  | > 100 | > 100 | > 100 |  | > 100
8 | CCCCCCCCCCCCCCCC(=O)OC1C(O)C(O)C(O)C(O)C12CO2 (stereo unspecified) | > 100 | > 100 | 34.5 | 73 | > 100 | > 100 | > 100 | 41.1 | > 100 | > 100 | 40 | > 100 | > 100 | 42.7 | > 100 | > 100 |  | > 100 | 56.1 | > 100
9 | COc1ccc(/C=C/C(=O)CCN2CCN(CCC(=O)/C=C/c3ccc(OC)cc3)CC2)cc1 | 28.4 | 35.3 | 26 | 28.8 | 23.8 | 13.6 |  |  | 23.1 | 96 | 19.7 | 32 | 13.4 | > 100 | 16.2 | 70 |  | 25.2 | 34.5 | 28
10 | CN(/N=C/C=N/N(C)C1=NCCN1)C1=NCCN1 | > 100 | > 100 | > 100 | > 100 | > 100 | > 100 |  | > 100 | > 100 | > 100 | > 100 | > 100 | > 100 | > 100 |  | > 100 | > 100 | > 100 | > 100 | > 100
11 | CC1(C)N([O-])[N+](=O)C1(C)O (stereo unspecified) | > 100 | > 100 | > 100 | > 100 | > 100 | > 100 | > 100 | > 100 | > 100 | > 100 | > 100 | > 100 | > 100 | > 100 | > 100 | > 100 | > 100 | > 100 |  | > 100
12 | Cc1cc(=O)oc2c(C)c3oc(CBr)cc3cc12 | 43.6 | 36.8 | 42.2 | > 100 | 79.9 | > 100 | 42.6 | 54.2 | 36.4 | 58.1 | 30.2 | 26 | 34.2 | 54.3 |  | > 100 | > 100 | 84.7 |  | 89.6
13 | CCOC(=O)c1cc([N+](=O)[O-])c(Sc2ncnc3nc[nH]c23)c([N+](=O)[O-])c1 | 29.2 | 5.15 | 30.6 | 7.52 | 14.5 | 3.41 | 6.08 | 4.39 | 25.6 | 14.3 | 5.25 | 23 | 3.08 |  | 25.6 | 49.1 | 83.3 | 19.5 | 7.85 | 5.81
14 | CC(=O)Oc1cc(-c2oc3cc(OC(C)=O)c(C4OC(CO)C(O)C(O)C4O)c(OC(C)=O)c3c(=O)c2O)c(OC(C)=O)cc1O (stereo unspecified) |  | > 100 | > 100 | > 100 | > 100 | > 100 | > 100 | > 100 | > 100 | > 100 | > 100 | > 100 | > 100 | > 100 |  | > 100 |  | > 100 | > 100 | > 100
15 | CC1(C)[C@H]2Cc3cc4nc5ccccn5c4cc3[C@@H]1C2 | 36.3 | 30.8 | 35.8 | 35.6 | 28.3 | 17.8 | 69.3 | 75.1 | 38.8 | 36.7 | 52.5 | 34.3 | 34.7 | 54.8 |  | 37.7 |  | 27.1 | 29.3 | 33
16 | CCOC(=O)CC1Nc2ccccc2C12CCc1c([nH]c3ccccc13)C2C(=O)OCC (stereo unspecified) | > 100 | > 100 | > 100 | > 100 | 40.1 | > 100 | 11.1 | > 100 | > 100 | > 100 | > 100 | > 100 | 22.4 | > 100 | > 100 | > 100 | > 100 | > 100 |  | > 100
17 | C=C(C)COc1cc(NC(=S)OC(C)C)ccc1Cl | 31.8 | 29.4 | 30.6 | 29.6 | 28.4 | 29.3 | 54.1 | 39.2 | 30.8 | 30.1 | 27.6 | 38.4 | 31.6 | 34.3 |  | 49.9 |  | 29.5 | 26.7 | 29.3
18 | S=C(S)NCCN1CCNCC1 | > 100 | > 100 | > 100 | 63.8 | > 100 | > 100 | 47.5 | > 100 | > 100 | > 100 | > 100 | > 100 | 43.7 |  | > 100 | > 100 | > 100 | > 100 | > 100 | 58.4
19 | O=C(CC(C(=O)c1cccs1)c1ccc2c(c1)OCO2)c1ccccc1 (stereo unspecified) | > 100 |  | > 100 | > 100 | > 100 | > 100 | > 100 |  | > 100 | > 100 | > 100 | > 100 | > 100 |  | > 100 | > 100 | > 100 | > 100 | > 100 | > 100
20 | COc1cc(C(c2ccc3c(c2)OCO3)C2SCCCS2)cc(OC)c1OC (stereo unspecified) | > 100 | 66.2 | 8.99 | 27.4 | 3.42 | 10.1 | 7.77 | 3.56 | 2.92 | 6.11 | 33 | 9.21 | 3.08 | 8.29 | 5.11 | 7.97 | 2.07 | 6.21 |  | > 100
21 | C=CCOCn1cnc2c(=O)[nH]c(N)nc21 | > 100 | > 100 | > 100 |  |  | > 100 | > 100 | > 100 | > 100 | > 100 | > 100 | > 100 | > 100 | > 100 | > 100 | > 100 | > 100 | > 100 |  | > 100
22 | [O-][N+]1=C2CCC/C(=N/O)C2(O)C2CCCCC21N1CCOCC1 (stereo unspecified) | > 100 | > 100 | > 100 | > 100 | > 100 | > 100 |  | > 100 | > 100 | > 100 | > 100 | > 100 | > 100 | > 100 |  | > 100 | > 100 | > 100 |  | > 100
23 | OC(Cc1cc(CC(O)(C(F)(F)F)C(F)(F)F)nc(CC(O)(C(F)(F)F)C(F)(F)F)c1)(C(F)(F)F)C(F)(F)F | 5.68 | > 10 | 7.33 | 1.96 | 6.24 | 9.06 | > 10 | > 10 | 1.81 | 6.32 | > 10 | 2.84 | 2.14 | > 10 | 3.22 | 4.63 |  | 3.68 | 3.45 | > 10
24 | Cc1cccc(N=N/C(=N\NC(=O)c2cc(Cl)ccc2O)c2ccc(N(CCC#N)CCC#N)cc2C)c1 | > 100 | > 100 | 69 | 49.6 | 74 | > 100 | 44.9 | 34.3 | 79.7 | > 100 | > 100 | > 100 | 29.3 | 39.9 |  | > 100 | 52.4 | 58.6 | 60.7 | 76.9
25 | CCN(CC)CCSc1c(C(C)=O)c(=O)n(-c2ccccc2)c(=S)n1-c1ccccc1 | 33.3 | 53.2 | 31.6 | 8.79 | 37.7 | 8.45 | 8.52 | > 100 | 50.1 | 63.4 | 13.4 | > 45.1 | 3.92 | 19.3 | 40.6 | > 93.4 |  | 26.9 | 5.8 | 17.2
